In patent US20250282749A1 (Tango Therapeutics, Inc., priority 2022, published 2025):

What was measured:
Assay type in all cases: cell-based
[1] = tested on: PRMT5 (SDMA) in HAP1 MTAP-deleted cell line; experiment: SDMA in-cell western assay, HAP1 MTAP-deleted cell line; conditions: for IC50 / IC90: Homo sapiens, SDMA in-cell western, HAP1 MTAP-deleted (MTAP-null) cell line; for Hap1 MTAP intact/deleted ratio: ratio of SDMA in-cell western IC50 in HAP1 MTAP-intact to IC50 in HAP1 MTAP-deleted cell line
Excerpt: (§1) HAP1 MTAP-intact is a cell line in which endogenous levels of MTAP are expressed, and HAP1 MTAP-deleted is an MTAP-null cell line.

[2] = tested on: PRMT5 (SDMA) in HAP1 MTAP-intact cell line; experiment: SDMA in-cell western assay, HAP1 MTAP-intact cell line; conditions: Homo sapiens, HAP1 MTAP-intact cell line (endogenous MTAP), read-out: Hap 1 MTAP intact IC50
Excerpt: as §1

[3] = tested on: HAP1 MTAP-deleted cell line; experiment: viability assay for the MTAP-deleted cell line; conditions: Homo sapiens

SMILES | IC50 [1] [nM] | IC90 [1] [nM] | Hap1 MTAP intact/deleted ratio [1] | IC50 [2] [nM] | IC50 [3] [nM]
CCc1cc(NC(=O)C(=O)N2C[C@@H](C)N(C(=O)C(C)C)C[C@@H]2c2cccc(N3CCN(C)CC3)c2)cnc1N [Compound 41, N-(6-amino-5-ethylpyridin-3-yl)-2-((2S,5R)-4-isobutyryl-5-methyl-2-(3-(4-methylpiperazin-1-yl)phenyl)piperazin-1-yl)-2-oxoacetamide] | < 5 | < 75 | C (an IC50 ratio of less than 15 fold) | 5 to 50 | < 100
C[C@@H]1CN(C(=O)C(=O)Nc2cncc3cn[nH]c23)[C@@H](c2ccccc2)CN1CC(C)(C)C [Compound 44, 2-oxo-N-(1H-pyrazolo[4,3-c]pyridin-7-yl)-2-[(2S,5R)-4-(2,2-dimethylpropyl)-5-methyl-2-phenyl-piperazin-1-yl]acetamide] | < 5 | < 75 | A (an IC50 ratio greater than or equal to 30 fold) | > 50 | 100 to 1000
C[C@@H]1CN(C(=O)C(=O)Nc2cnc(N)c3cn[nH]c23)[C@@H](c2ccc(F)cc2)CN1C(=O)C(C)(C)C [Compound 46] | < 5 | < 75 | C (an IC50 ratio of less than 15 fold) | 5 to 50 | < 100
CCc1cc(NC(=O)C(=O)N2CCN(C(=O)C3(C(F)(F)F)CC3)C[C@@H]2c2ccc(F)c(Cl)c2)cnc1N [Compound 47, N-(6-amino-5-ethyl-3-pyridyl)-2-[(2S)-2-(3-chloro-4-fluoro-phenyl)-4-[1-(trifluoromethyl)cyclopropanecarbonyl]piperazin-1-yl]-2-oxo-acetamide] | > 50 | > 125 | C (an IC50 ratio of less than 15 fold) | > 50 | > 1000
Cc1cc(NC(=O)C(=O)N2C[C@@H](C)N(C(=O)CC3(C)CC3)C[C@@H]2c2ccccc2)cnc1N [Compound 49] | 5 to 50 | 75 to 125 | C (an IC50 ratio of less than 15 fold) | > 50 | 100 to 1000
CC(=O)N1C[C@H](c2ccccc2)N(C(=O)C(=O)Nc2cnc(N)c3cn[nH]c23)C[C@H]1C [Compound 52] | 5 to 50 | < 75 | B (an IC50 ratio greater than or equal to 15 fold but lower than 30 fold) | > 50 | < 100
C[C@@H]1CN(C(=O)C(=O)Nc2cnc(N)c3cn[nH]c23)[C@@H](c2ccccc2)CN1C(=O)C(C)(C)CN(C)C [Compound 54, N-(4-amino-1H-pyrazolo[4,3-c]pyridin-7-yl)-2-oxo-2-[(2S,5R)-4-[3-(dimethylamino)-2,2-dimethyl-propanoyl]-5-methyl-2-phenyl-piperazin-1-yl]acetamide] | 5 to 50 | < 75 | C (an IC50 ratio of less than 15 fold) | 5 to 50 | < 100
C[C@@H]1CN(C(=O)C(=O)Nc2cncc3[nH]ncc23)[C@@H](c2ccccc2)CN1C(=O)C(C)(C)C [Compound 55, 2-((2S,5R)-5-methyl-2-phenyl-4-pivaloylpiperazin-1-yl)-2-oxo-N-(1H-pyrazolo[3,4-c]pyridin-4-yl)acetamide] | 5 to 50 | 75 to 125 | C (an IC50 ratio of less than 15 fold) | > 50 | < 100
C[C@@H]1CN(C(=O)C(=O)Nc2cnc(N)c3cn[nH]c23)[C@@H](c2ccccc2)CN1C [Compound 57] | < 5 | < 75 | B (an IC50 ratio greater than or equal to 15 fold but lower than 30 fold) | > 50 | < 100
CCc1cc(NC(=O)C(=O)N2C[C@@H](C)N(C(=O)C3(C)CC3)C[C@@H]2c2ccccc2)cnc1N [Compound 58, N-(6-amino-5-ethylpyridin-3-yl)-2-((2S,5R)-5-methyl-4-(1-methylcyclopropanecarbonyl)-2-phenylpiperazin-1-yl)-2-oxoacetamide] | 5 to 50 | < 75 | C (an IC50 ratio of less than 15 fold) | > 50 | < 100
C[C@@H]1CN(C(=O)C(=O)Nc2cnc(N)c(C3CC3)c2)[C@@H](c2ccc(F)c(F)c2)CN1C(=O)C1(C)CC1 [Compound 59, N-(6-amino-5-cyclopropylpyridin-3-yl)-2-((2S,5R)-2-(3,4-difluorophenyl)-5-methyl-4-(1-methylcyclopropanecarbonyl)piperazin-1-yl)-2-oxoacetamide] | < 5 | < 75 | B (an IC50 ratio greater than or equal to 15 fold but lower than 30 fold) | > 50 | < 100
CCc1cc(NC(=O)C(=O)N2C[C@@H](C)N(C(=O)C3(C)CC3)C[C@@H]2c2ccc(F)cc2)cnc1N [Compound 60, N-(6-amino-5-ethylpyridin-3-yl)-2-((2S,5R)-2-(4-fluorophenyl)-5-methyl-4-(1-methylcyclopropanecarbonyl)piperazin-1-yl)-2-oxoacetamide] | < 5 | < 75 | C (an IC50 ratio of less than 15 fold) | 5 to 50 | < 100
Cc1cc(NC(=O)C(=O)N2C[C@@H](C)N(C(=O)C3(C(F)(F)F)CC3)C[C@@H]2c2cc(Cl)cc(Cl)c2)cnc1N [Compound 62, N-(6-amino-5-methylpyridin-3-yl)-2-((2S,5R)-2-(3,5-dichlorophenyl)-5-methyl-4-(1-(trifluoromethyl)cyclopropanecarbonyl)piperazin-1-yl)-2-oxoacetamide] | 5 to 50 | 75 to 125 | A (an IC50 ratio greater than or equal to 30 fold) | > 50 | < 100
COc1ncc(NC(=O)C(=O)N2C[C@@H](C)N(C(=O)C3(C(F)(F)F)CC3)C[C@@H]2c2ccc(F)c(Cl)c2)cc1C(N)=O [Compound 63, 5-(2-((2S,5R)-2-(3-chloro-4-fluorophenyl)-5-methyl-4-(1-(trifluoromethyl)cyclopropanecarbonyl)piperazin-1-yl)-2-oxoacetamido)-2-methoxynicotinamide] | 5 to 50 | 75 to 125 | A (an IC50 ratio greater than or equal to 30 fold) | > 50 | 100 to 1000
Cc1cc(NC(=O)C(=O)N2C[C@@H](C)N(C(=O)C3(C)CC3)C[C@@H]2c2ccc(Cl)cc2)cnc1N [Compound 65] | < 5 | < 75 | C (an IC50 ratio of less than 15 fold) | 5 to 50 | < 100
Cc1cc(NC(=O)C(=O)N2CCN(C(=O)C3(C(F)(F)F)CC3)[C@H](C)[C@H]2c2ccc(F)c(F)c2)cnc1N [Compound 66] | 5 to 50 | > 125 | A (an IC50 ratio greater than or equal to 30 fold) | > 50 | 100 to 1000
CCc1cc(NC(=O)C(=O)N2C[C@@H](C)N(C(=O)C(C)C)C[C@@H]2c2cccc(OCCN(C)C)c2)cnc1N [Compound 67, N-(6-amino-5-ethylpyridin-3-yl)-2-((2S,5R)-2-(3-(2-(dimethylamino)ethoxy)phenyl)-4-isobutyryl-5-methylpiperazin-1-yl)-2-oxoacetamide] | < 5 | < 75 | C (an IC50 ratio of less than 15 fold) | 5 to 50 | < 100
